Measured values reported in patent US20250188123A1, “PROTEASE INHIBITORS” (Regents of the University of Minnesota, priority 2022, published 2025).
Like-named read-outs stand apart in the source and are kept apart here. *1 amine or outer side, *2 acyl side, *3 side chain or, on linkers, in order; H or OH if unused. Where a SMILES comes first, the peptide text is derived from it. [ ]: non-standard residue; d: D form. ξ: configuration not given here. X1 = Cc1ccc2c(c1)CCN([*:1])[C@@H]2C(=O)[*:2]; ξ(indoline-2-carboxyl) = O=C(O)C1Cc2ccccc2N1; Aad = N[C@@H](CCCC(=O)O)C(=O)O

What was measured:
human caspase-2 = molecular target: T1, human caspase-2 (Homo sapiens, UniProt P42575); experiment: Fluorescent enzyme assay, Casp2 (AFC substrate Z-VDVAD-AFC); assay type: biochemical; conditions: for Ki (Casp3) / Ki (Casp2): selectivity Casp2 over Casp3
T1 construct: inferred from pET23b, XhoI reverse primer without stop codon, Ni-NTA purification) (C); made in house; host or cells: E. coli BL21(DE3)
T1 sequence (P42575 170-452): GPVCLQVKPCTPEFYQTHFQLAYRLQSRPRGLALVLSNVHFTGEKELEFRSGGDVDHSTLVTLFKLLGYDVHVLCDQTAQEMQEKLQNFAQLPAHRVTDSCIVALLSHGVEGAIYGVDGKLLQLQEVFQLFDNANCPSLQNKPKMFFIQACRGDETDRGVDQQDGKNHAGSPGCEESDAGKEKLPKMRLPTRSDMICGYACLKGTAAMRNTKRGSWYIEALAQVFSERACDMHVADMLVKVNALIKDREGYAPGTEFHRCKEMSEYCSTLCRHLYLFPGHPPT
Description: (§1) Human recombinant Casp1, 6, 7, and 9 were purchased from BioVision (Milpitas/CA, USA). AFC fluorogenic substrates and control peptides (AcYVAD-CHO, AcVDVAD-CHO, AcDEVD-CHO, AcVEID-CHO, and AcLEHD-CHO) were purchased from Bachem (Torrance/CA, USA). The pET23b vector encoding human caspase-3 was a gift of Dr. Michelle Arkin at University of California, San Francisco. Expression and purification of Casp3 was guided by previously described protocols (Denault J-B, Salvesen G S., Current Protocols in Protein Science, 2002, 30(1), 21.13. 1-21.13. 15). Briefly, the plasmid was transformed into E. coli Rosetta 2 pLyss DE3 cells that were cultured at 1 L scale in shake flasks. Five hours post induction with IPTG, cells were harvested through centrifugation (4000 g for 10 minutes at 4° C.), lysed by sonication, and centrifuged again for 30 minutes at 20000 g. Supernatant was resuspended in buffer (100 mM Tris pH 8.0, 500 mM NaCl). Purification was achieved by nickel-affinity chromatography followed by ion-exchange chromatography. Protein was diluted to 0.5 mg/mL and stored at −80° C. in 100 mM Tris, pH 8.0 supplemented with 10% glycerol. The typical yield for the expression, isolation, and purification was approximately 3 mg/L. The DNA encoding human caspase-2 (hCASP2, amino acids 170-452, free of the N-terminal caspase activation and recruitment domain) open reading frame (ORF) was amplified via polymerase chain reaction (PCR) from full-length hCASP2 cDNA (Origene, Rockville, MD; Cat #SC321316) using following primers: forward, 5′-[…]-3′; reverse, 5′-[…]-3′. The PCR fragment was then cloned into the pET23b vector (Millipore Sigma, Burlington, MA), and DNA sequence was verified by classic Sanger sequencing analyses. Site-directed mutageneses were carried out using a QuikChange II XL site-directed mutagenesis kit (Agilent Technologies, Santa Clara, CA; Cat #200522) according to the manufacturer's instruction. Expression of recombinant hCASP2 was induced using 150 μM isopropyl-β-D-thiogalactopyranoside (IPTG) (Promega, Madison, WI) in the BL21(DE3) E. coli strain (Millipore Sigma) at 16° C. for 14 hours while shaking at 250 rpm. Cells were then harvested via centrifugation at 6,000 g, 4° C. for 15 minutes, followed by lysis via sonication. Proteins were initially purified using HisPur Ni-NTA resin (Thermo Fisher Scientific, Waltham, MA) followed by metal chelating chromatography (5 mL HiTrap Chelating HP columns (GE Healthcare Life Sciences, Piscataway, NJ)). Further purification was carried out using anion exchange chromatography (5 mL HiTrap Q HP columns (GE Healthcare Life Sciences)) for hCASP2. Proteins were stored in 1× phosphate-buffered saline (pH 7.4) at 10 mg/mL (concentration determined using a BCA assay (Thermo Fisher Scientific)), −80° C. until further use.
(§2) KM values were determined experimentally to be the following: Casp1: 5.9 μM; Casp2: 37.1 μM; Casp3: 7.6 μM; Casp6: 14.5 μM; Casp7: 13.8 μM; Casp9: 149.1 μM. Enzymes were diluted in buffer: 100 mM MES (pH 6.5) for Casp2 and or 100 mM HEPES (pH 7.0) for all other caspases, plus 150 mM NaCl, 0.1% CHAPS, 1.5% sucrose, 10 mM DTT. Enzyme concentrations were 0.05 U/well for Casp1, 6, and 7; 0.5 U/well for Casp9, 20 nM/well for Casp2, and 2 nM/well for Casp3. Enzyme in buffer (19 μL) was added per well in a black 384-well Corning 4514 assay plate. Test compounds were serially diluted in dimethyl sulfoxide (DMSO) and plated in duplicate into a Corning 3656 transfer plate. Test compound was added to assay plates in 0.5 μL aliquots per well and mixed 10 times using a BiomekFX (Beckman Coulter). Compound and enzyme mixture was incubated at 37° C. for 5 minutes for aldehyde warheads and 45 minutes for cyano warheads. […]

human caspase-3 = molecular target: T2, human caspase-3 (Homo sapiens, UniProt P42574); experiment: Fluorescent enzyme assay, Casp3 (AFC substrate AcDEVD-AFC); assay type: biochemical
T2 construct: made in house; host or cells: E. coli Rosetta 2 pLysS DE3
T2 sequence (P42574 29-277): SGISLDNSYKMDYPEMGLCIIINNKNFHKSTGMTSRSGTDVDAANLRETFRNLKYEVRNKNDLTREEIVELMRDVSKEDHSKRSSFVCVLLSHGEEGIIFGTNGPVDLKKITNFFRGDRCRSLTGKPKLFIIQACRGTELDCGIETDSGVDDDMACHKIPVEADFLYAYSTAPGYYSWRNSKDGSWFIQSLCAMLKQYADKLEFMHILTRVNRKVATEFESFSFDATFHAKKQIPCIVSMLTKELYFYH
Description: as §1, §2

[1] = mean ± SEM of N independent experiments, each in duplicate or triplicate, read-out: pKi ± SEM Casp 2 (converted)
[2] = mean ± SEM of N independent experiments, each in duplicate or triplicate, read-out: pKi ± SEM Casp 3 (converted)

Row | Ki (human caspase-2; [1]) [µM] | Ki (human caspase-3; [2]) [µM] | SMILES | Ki (Casp3) / Ki (Casp2) (human caspase-2) | Ki (human caspase-2) [µM] | Ki (human caspase-3) [µM]
1 | 6.03 | > 100 | CC(=O)N1c2ccccc2C[C@H]1C(=O)N[C@@H](CCCC(=O)O)C(=O)N[C@H](C(=O)N1CCc2cc(C)ccc2[C@H]1C(=O)N[C@H](C=O)CC(=O)O)[C@H](C)OCc1ccccc1 [Compound 8, (S)-5-((S)-1-acetylindoline-2-carboxamido)-6-(((2S,3S)-3-(benzyloxy)-1-((S)-1-(((S)-1-carboxy-3-oxopropan-2-yl)carbamoyl)-6-methyl-3,4-dihydroisoquinolin-2(1H)-yl)-1-oxobutan-2-yl)amino)-6-oxohexanoic acid] | 17 | – | –
2 | – | – | Cc1ccc2c(c1)CCN(C(=O)[C@@H](NC(=O)[C@H](CCCC(=O)O)NC(=O)C1Cc3ccccc3N1)C(C)C)[C@@H]2C(=O)N[C@H](C=O)CC(=O)O (stereo partly drawn) [Compound 2, (S)-6-(((S)-1-((S)-1-(((S)-1-carboxy-3-oxopropan-2-yl)carbamoyl)-6-methyl-3,4-dihydroisoquinolin-2(1H)-yl)-3-methyl-1-oxobutan-2-yl)amino)-5-((S)-indoline-2-carboxamido)-6-oxohexanoic acid hydrotrifluoroacetate] (H-[ξ(indoline-2-carboxyl)][Aad]V[X1]D-aldehyde) | 794 | 0.0398 | > 31.6
3 | – | – | Cc1ccc2c(c1)CCN(C(=O)[C@@H](NC(=O)[C@H](CCCC(=O)O)NC(=O)[C@H]1Nc3ccc(F)cc3C1(C)C)C(C)C)C2C(=O)N[C@H](C=O)CC(=O)O (stereo partly drawn) [Compound 13, (S)-6-(((S)-1-((S)-1-(((S)-1-carboxy-3-oxopropan-2-yl)carbamoyl)-6-methyl-3,4-dihydroisoquinolin-2(1H)-yl)-3-methyl-1-oxobutan-2-yl)amino)-5-((S)-5-fluoro-3,3-dimethylindoline-2-carboxamido)-6-oxohexanoic acid hydrotrifluoroacetate] | 155 | 0.646 | > 100
4 | > 100 | > 100 | Cc1ccc2c(c1)CCN(C(=O)CCCCNC(=O)[C@@H]1Cc3ccccc3N1)[C@@H]2C(=O)N[C@H](C=O)CC(=O)O [Compound 4, (S)-3-((S)-2-(5-((S)-indoline-2-carboxamido)pentanoyl)-6-methyl-1,2,3,4-tetrahydroisoquinoline-1-carboxamido)-4-oxobutanoic acid hydrotrifluoroacetate] | – | – | –
